Entries after “also recorded” stand apart in the source; their conditions may differ.
Experiments:
[1] = test system: MBP; assay: MBP expression in ischemia-reperfusion dementia mice; assay type: in vivo, C57BL/6J mice; conditions: compared with the model group
Description: (§1) 140 healthy C57BL/6J mice, including 70 males and 70 females, were used. 1% Pentobarbital Sodium (50 mg/kg) was injected intraperitoneally to anesthetize the mice. The back position was fixed, the neck hair was removed, and the common carotid arteries were cut along the middle of the neck after iodophor disinfection. The common carotid arteries were separated, clamped with a noninvasive artery clamp for 15 minutes, released for 10 minutes, and then clamped for 10 minutes. Penicillin powder was then applied to suture muscles and skin. The sham operation group was not clamped, and other operations were the same as for the model group. […]
(§2) The main pathological index included: investigation of the improvement of learning and memory impairment by the compound in the pathogenic model of cerebral ischemia-reperfusion using behavioral experimental methods such as Y maze, new object discrimination, spontaneous activity, Morris water maze and passive avoidance experiment (dark avoidance); investigation of the ultrastructure of nerve cells (including nucleus, mitochondria and synapse) by HE staining and immunofluorescence; detection of expression of synaptic associated proteins SYP and PSD95 by Western blotting; and detection of expression of apoptosis-related proteins Bcl-2 and Bax by Western blotting. […] Experimental results were analyzed statistically using IBM SPSS 21.0 software. […]

[2] = test system: PSD95; assay: PSD95 expression in hippocampus by Western blotting, ischemia-reperfusion dementia mice; assay type: in vivo, C57BL/6J mice
Description: Compound 4, 85 mg/kg, bid; D. Compound 4, 170 mg/kg, bid; E. Compound 4, 340 mg/kg, bid; F. Donepezil, 1.3 mg/kg. Compared with sham operation group: ### P<0.001; Compared with the model group: ** P<0.01, *** P<0.001.
(§3) 140 healthy C57BL/6J mice, including 70 males and 70 females, were used. 1% Pentobarbital Sodium (50 mg/kg) was injected intraperitoneally to anesthetize the mice. The back position was fixed, the neck hair was removed, and the common carotid arteries were cut along the middle of the neck after iodophor disinfection. The common carotid arteries were separated, clamped with a noninvasive artery clamp for 15 minutes, released for 10 minutes, and then clamped for 10 minutes. Penicillin powder was then applied to suture muscles and skin. The sham operation group was not clamped, and other operations were the same as for the model group. […] Mice were divided into 6 groups: sham operation group, model group, positive control group (donepezil) and test compound group (different doses). Test compounds were administered by gavage to each group on the next day of modeling. The compound group was given compounds once a day in the morning and evening, and the volume of each gavage was 10 ml/kg. […]

[3] = test system: MBP; assay: MBP expression, multiple cerebral infarction dementia rats; assay type: in vivo, SD rats; conditions: compared with the model group, p<0.05
Description: (§4) 135 SPF grade SD rats (75 females, 60 males, weighing 200-220 g) were used. Anesthesia was performed by intraperitoneal injection of 3.5% chloral hydrate (350 mg/kg). After dorsal fixation, neck hair removal and iodophor disinfection, animals were cut along the middle of the neck to separate the right common carotid artery, external carotid artery and internal carotid artery. […]
(§5) The main pathological indexes included investigation of the improvement of learning and memory impairment in the dementia model animal by test compound using behavioral experimental methods such as Y maze, new object discrimination, Morris water maze and passive avoidance test (dark avoidance); investigation of the protective effect of test compound on mitochondria by detecting the content of ATP in hippocampus and cortex of rats; and investigation of levels of oxidative stress in the rat brain by measuring activity of superoxide dismutase (SOD, which is an oxygen free-radical scavenger), glutathione peroxidase (GSH-Px, which scavenges lipid peroxides induced by reactive oxygen species and —OH), nitric oxide synthase (NOS), malondialdehyde (MDA), and nitric oxide (NO). […] Expression of synaptic associated proteins SYP and PSD95 was detected by Western blotting. […] Experimental results were statistically analyzed using IBM SPSS 21.0 software. […]

[4] = test system: ATP; assay: ATP content of hippocampus and cortex, multiple cerebral infarction dementia rats; assay type: in vivo, SD rats; conditions: compared with the model group, p<0.05
Description: as §4, §5

[5] = test system: SYP; assay: SYP expression in hippocampus by Western blotting, ischemia-reperfusion dementia mice; assay type: in vivo, C57BL/6J mice
Description: Compound 4, 85 mg/kg, bid; D. Compound 4, 170 mg/kg, bid; E. Compound 4, 340 mg/kg, bid; F. Donepezil, 1.3 mg/kg. Compared with sham operation group, ## P<0.01; Compared with the model group, * P<0.05.
as §3, with “ml/kg. Half of the animals in the sham operation group and the model group were given the same amount of distilled water, and half of the animals were given the same amount of 1% sodium carboxymethylcellulose solution.” for “ml/kg.”

[6] = test system: Bax; assay: Bax expression by Western blotting, ischemia-reperfusion dementia mice; assay type: in vivo, C57BL/6J mice
Description: as §1, §2

[7] = test system: SYP; assay: SYP expression by Western blotting, multiple cerebral infarction dementia rats; assay type: in vivo, SD rats; conditions: compared with the model group, p<0.05
Description: as §4, §5

[8] = test system: nerve cells (nucleus, mitochondria and synapse); assay: Ultrastructure of nerve cells (transmission electron microscope), multiple cerebral infarction dementia rats; assay type: in vivo, SD rats; conditions: compared with the model group, p<0.05
Description: Compound 4, 120 mg/kg, bid; D. Compound 4, 240 mg/kg, bid; E. Compound 4, 480 mg/kg, bid; F. Donepezil, 0.9 mg/kg.
as §4
The main pathological indexes included investigation of the improvement of learning and memory impairment in the dementia model animal by test compound using behavioral experimental methods such as Y maze, new object discrimination, Morris water maze and passive avoidance test (dark avoidance); investigation of the protective effect of test compound on mitochondria by detecting the content of ATP in hippocampus and cortex of rats; and investigation of levels of oxidative stress in the rat brain by measuring activity of superoxide dismutase (SOD, which is an oxygen free-radical scavenger), glutathione peroxidase (GSH-Px, which scavenges lipid peroxides induced by reactive oxygen species and —OH), nitric oxide synthase (NOS), malondialdehyde (MDA), and nitric oxide (NO). […] Expression of synaptic associated proteins SYP and PSD95 was detected by Western blotting. […]

[9] = test system: nitric oxide (NO); assay: NO concentration in cerebral cortex, multiple cerebral infarction dementia rats; assay type: in vivo, SD rats; conditions: compared with the model group, p<0.05
Description: Compound 4, 120 mg/kg, bid; D. Compound 4, 240 mg/kg, bid; E. Compound 4, 480 mg/kg, bid; F. Donepezil, 0.9 mg/kg. Compared with sham operation group: ### P<0.001; Compared with the model group: ** P<0.01, *** P<0.001.
135 SPF grade SD rats (75 females, 60 males, weighing 200-220 g) were used. Anesthesia was performed by intraperitoneal injection of 3.5% chloral hydrate (350 mg/kg). After dorsal fixation, neck hair removal and iodophor disinfection, animals were cut along the middle of the neck to separate the right common carotid artery, external carotid artery and internal carotid artery. The common carotid artery was temporarily clamped by the artery clamp, the left external carotid artery was retrogradely punctured to the beginning of the left internal carotid artery with a pediatric scalp needle, and then 0.4 ml of embolic normal saline suspension was slowly injected with a syringe (the preparation of embolic normal saline suspension was as follows: blood was collected from the abdominal aorta of the same rat, dried naturally in a 37° C. incubator, and prepared for 80-200 minutes to form a blood clot; during application, 0.3 ml normal saline was added to every 10 mg blood clot), and the common carotid artery clamp was opened at the same time, then the external carotid artery was ligated and the skin was sutured. […]

[10] = cited from earlier work
[11] = test system: mouse model of dementia caused by cerebral ischemia-reperfusion; assay: Cognitive tests in mouse model of dementia caused by cerebral ischemia-reperfusion; assay type: in vivo, C57BL/6J mice
Description: 140 healthy C57BL/6J mice, including 70 males and 70 females, were used. 1% Pentobarbital Sodium (50 mg/kg) was injected intraperitoneally to anesthetize the mice. The back position was fixed, the neck hair was removed, and the common carotid arteries were cut along the middle of the neck after iodophor disinfection. The common carotid arteries were separated, clamped with a noninvasive artery clamp for 15 minutes, released for 10 minutes, and then clamped for 10 minutes. Penicillin powder was then applied to suture muscles and skin. The sham operation group was not clamped, and other operations were the same as for the model group. […] Mice were divided into 6 groups: sham operation group, model group, positive control group (donepezil) and test compound group (different doses). Test compounds were administered by gavage to each group on the next day of modeling. The compound group was given compounds once a day in the morning and evening, and the volume of each gavage was 10 ml/kg. Half of the animals in the sham operation group and the model group were given the same amount of distilled water, and half of the animals were given the same amount of 1% sodium carboxymethylcellulose solution. From the 16th day of administration, Y maze, new object discrimination (days 17-20), spontaneous activity (days 20), Morris water maze (days 23-28) and dark avoidance experiment (days 29-30) were carried out successively. During the behavioral experiment, the administration of compound was continued until the animals were sacrificed.
The main pathological index included: investigation of the improvement of learning and memory impairment by the compound in the pathogenic model of cerebral ischemia-reperfusion using behavioral experimental methods such as Y maze, new object discrimination, spontaneous activity, Morris water maze and passive avoidance experiment (dark avoidance); investigation of the ultrastructure of nerve cells (including nucleus, mitochondria and synapse) by HE staining and immunofluorescence; detection of expression of synaptic associated proteins SYP and PSD95 by Western blotting; and detection of expression of apoptosis-related proteins Bcl-2 and Bax by Western blotting. The experimental results for compound 4 on the expression of SYP and PSD95 in the hippocampus of dementia model mice induced by cerebral ischemia-reperfusion are shown in FIG. 5 and FIG. 6 and in Table V below. Experimental results were analyzed statistically using IBM SPSS 21.0 software. The differences between groups were compared by one-way ANOVA or two-way ANOVA (water maze directional navigation) and LSD test. Experimental data were expressed by “mean±SEM”, P<0.05.

[12] = Test group vs model group, n = 15-17, dose not stated
[13] = 2-h time point, oral, 0.72 mmol/kg
[14] = mice, gavage, morning and evening

In the case of `[2H]C([2H])(CCS(=O)(=O)O)NC(=O)[C@@H](N)C(C)C` [compound 4, 3-((L-valyl)amino)-3,3-dideuterium-1-propanesulfonic Acid], the “expression of MBP in hippocampal CA1 area and cerebral cortex” value [1] is reported as “increased”, the “PSD95 expression, p compared with model group” value [2, 12] is reported as “p < 0.001” and the “expression of PSD95” value ([2]; compared with the model group) is reported as “increased”. The MBP expression [3] was “increased”, the “ATP content of hippocampus and cerebral cortex” value [4] was “significantly increased” and the “SYP expression, p compared with model group” value [5, 12] was “p < 0.05”. The “expression of SYP” value ([5]; compared with the model group) was “increased”, the “Bax expression, p compared with model group” value [6, 12] was “p < 0.01” and the “expression of Bax” value ([6]; compared with the model group) was “reduced”. For the same compound, the SYP expression [7] was “significantly increased”, the “ultrastructure of nerve cells” value [8] was “improved” and the NO content [9] was “significantly reduced”. For the same compound, the “concentration of metabolite (2-carboxy-1-ethanesulfonic acid) in plasma compared to 3APS (of natural abundance)” value [10, 13] was “much lower”, the “plasma drug concentration compared to 3APS (of natural abundance)” value [10, 13] was “higher” and the “plasma drug exposure compared to 3APS (of natural abundance)” value ([10]; mole-equivalent oral dose (0.72 mmol/kg), mouse plasma) was “improved plasma drug exposure significantly; also recorded: even greater improvement of drug exposure”. The “increase of Cmax for the drug concentration” value ([10]; mole-equivalent oral dose, mouse plasma, versus 3APS of natural abundance) was roughly 2 fold, the “drug metabolism / metabolic profile compared to 3APS” value ([10]; mole-equivalent oral dose, mouse) was “delayed drug metabolism” and the “conversion of prodrug to compound 1 in the subject” value ([10]; oral, mouse plasma) was “converted easily to compound 1”. The “Discrimination coefficient for new objects, p compared with model group” value [11, 12] was “p < 0.05”, the “Percentage of swimming distance, p compared with model group” value [11, 12] was “p < 0.05” and the “Priority index for new objects, p compared with model group” value [11, 12] was “p < 0.05”. For the same compound, the “Spontaneous alternating response rate, p compared with model group” value [11, 12] was “p < 0.05”, the “Swimming time in target quadrant, p compared with model group” value [11, 12] was “p < 0.05” and the “The incubation period for entering the darkroom, p compared with model group” value [11, 12] was “p < 0.05”. For the same compound, the “Times of crossing the platform, p compared with model group” value [11, 12] was “p < 0.01”, the “discrimination coefficient to new objects in the new object discrimination experiment” value [11, 14] was “improved” and the “incubation period of entering the dark room in the dark avoidance experiment” value [11, 14] was “prolonged”. For the same compound, the “number of times of crossing the platform” value [11, 14] was “increased” and the “percentage of swimming distance in the target quadrant” value [11, 14] was “improved”.

— patent US12403129B2, “Isotope-enriched 3-amino-1-propanesulfonic acid derivatives for the treatment of cerebrovascular disease” (RISEN (SUZHOU) PHARMA TECH CO., LTD., priority 2021, dated 2025)
